Results taken from PubChem BioAssay (NCI).
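Protocol summary: plate cells (96-well), add compound at 5 concentrations, incubate 48 h, interpolate endpoints linearly. TGI marks complete inhibition of growth.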

Tests used:
Experiment in all cases: NCI anticancer screen, dose series, 48 h
[1] = system: U251 CNS
[2] = system: KM20L2 colon
[3] = system: K-562 leukemia
[4] = system: MOLT-4 leukemia
[5] = system: SK-MEL-28 melanoma
[6] = system: UO-31 renal
[7] = system: NCI-H23 lung
[8] = system: SW-620 colon
[9] = system: HCC-2998 colon
[10] = system: M19-MEL melanoma
[11] = system: LXFL 529 NSCLC
[12] = system: SK-MEL-5 melanoma
[13] = system: KM12 colon
[14] = system: SK-OV-3 ovarian
[15] = system: TK-10 renal
[16] = system: HCT-116 colon
[17] = system: ACHN renal
[18] = system: SF-268 CNS
[19] = system: CCRF-CEM leukemia
[20] = system: SR leukemia
[21] = system: OVCAR-3 ovarian
[22] = system: XF 498 CNS
[23] = system: UACC-257 melanoma
[24] = system: MALME-3M melanoma
[25] = system: NCI-H522 lung
[26] = system: HOP-62 NSCLC
[27] = system: A549 NSCLC
[28] = system: A498 renal
[29] = system: SNB-19 CNS
[30] = system: 786-0 renal
[31] = system: OVCAR-4 ovarian
[32] = system: RPMI-8226 leukemia
[33] = system: HCT-15 colon
[34] = system: SF-295 CNS
[35] = system: NCI-H226 lung
[36] = system: COLO 205 colon
[37] = system: HL-60(TB) leukemia
[38] = system: HT29 colon
[39] = system: DLD-1 colon
[40] = system: SK-MEL-2 melanoma
[41] = system: SNB-78 CNS
[42] = system: UACC-62 melanoma
[43] = system: SN12C renal
[44] = system: OVCAR-5 ovarian
[45] = system: M14 melanoma
[46] = system: SNB-75 CNS
[47] = system: IGROV1 ovarian
[48] = system: OVCAR-8 ovarian
[49] = system: DMS 273 small cell lung
[50] = system: LOX IMVI melanoma
[51] = system: EKVX NSCLC
[52] = system: NCI-H460 lung
[53] = system: DMS 114 small cell lung
[54] = system: SF-539 CNS
[55] = system: RXF-631 renal
[56] = system: RXF 393 renal
[57] = system: HOP-92 NSCLC
[58] = system: CAKI-1 renal

Measured: TGI

CCC(/C=C/c1ccccc1)=N\N=C(\C=C\c1ccccc1)CC
> 100 µM: [1] | [2] | [3] | [4] | [5] | [6] | [7] | [8] | [9] | [10] | [11] | [12] | [13] | [14] | [15] | [16] | [17] | [18] | [19] | [20] | [21] | [22] | [23] | [24] | [25] | [26] | [27] | [28] | [29] | [30] | [31] | [32] | [33] | [34] | [35] | [36] | [37] | [38] | [39] | [40] | [41] | [42] | [43] | [44] | [45] | [46] | [47] | [48] | [49] | [50] | [51] | [52]

O=C(CCc1cc(-c2ccco2)n(-c2ccc([N+](=O)[O-])cc2[N+](=O)[O-])n1)Nc1ccccc1
> 100 µM: [1] | [2] | [3] | [53] | [4] | [5] | [54] | [6] | [7] | [8] | [9] | [10] | [11] | [12] | [13] | [14] | [16] | [17] | [18] | [19] | [20] | [22] | [23] | [25] | [26] | [27] | [28] | [29] | [30] | [31] | [32] | [33] | [34] | [55] | [35] | [36] | [37] | [38] | [39] | [40] | [56] | [41] | [42] | [43] | [44] | [57] | [45] | [46] | [47] | [48] | [49] | [58] | [51] | [52]
94.2 µM: [24]
